Key:
recombinant Eg5 = target: T1, recombinant Eg5 (Xenopus laevis, UniProt P28025); experiment: Eg5 driven microtubule gliding in vitro; assay type: biochemical; conditions: for reversibility of inhibition (washout): monastrol 200 μM, then washout
T1 sequence (P28025 1-1067): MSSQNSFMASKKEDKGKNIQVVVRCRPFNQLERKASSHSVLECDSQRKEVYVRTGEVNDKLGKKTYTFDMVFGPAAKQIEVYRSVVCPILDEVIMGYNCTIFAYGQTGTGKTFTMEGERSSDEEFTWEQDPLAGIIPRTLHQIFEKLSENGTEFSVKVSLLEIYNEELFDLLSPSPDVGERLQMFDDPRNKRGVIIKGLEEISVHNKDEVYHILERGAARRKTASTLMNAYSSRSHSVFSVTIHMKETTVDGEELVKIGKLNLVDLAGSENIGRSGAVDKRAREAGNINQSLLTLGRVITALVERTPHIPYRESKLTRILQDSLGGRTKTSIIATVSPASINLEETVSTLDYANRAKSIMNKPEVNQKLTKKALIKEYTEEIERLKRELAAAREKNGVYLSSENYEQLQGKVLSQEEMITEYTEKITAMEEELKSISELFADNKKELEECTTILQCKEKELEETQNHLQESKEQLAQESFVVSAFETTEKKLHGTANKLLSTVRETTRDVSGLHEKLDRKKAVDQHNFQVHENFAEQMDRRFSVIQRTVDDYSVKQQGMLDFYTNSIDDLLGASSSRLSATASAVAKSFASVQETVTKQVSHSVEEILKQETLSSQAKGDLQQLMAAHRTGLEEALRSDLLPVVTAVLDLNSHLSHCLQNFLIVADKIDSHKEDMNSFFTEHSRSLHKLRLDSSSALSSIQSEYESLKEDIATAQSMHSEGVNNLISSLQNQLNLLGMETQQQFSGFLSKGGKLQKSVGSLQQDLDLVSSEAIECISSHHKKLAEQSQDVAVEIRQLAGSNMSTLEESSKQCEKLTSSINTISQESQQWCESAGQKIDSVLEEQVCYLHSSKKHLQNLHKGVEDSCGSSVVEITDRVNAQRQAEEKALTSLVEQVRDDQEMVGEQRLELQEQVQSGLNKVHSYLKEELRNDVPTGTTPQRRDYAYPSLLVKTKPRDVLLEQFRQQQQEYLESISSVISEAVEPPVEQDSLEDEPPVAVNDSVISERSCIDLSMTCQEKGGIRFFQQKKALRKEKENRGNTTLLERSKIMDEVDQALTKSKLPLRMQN
Method: FIG. 26. […] Conventional kinesin motility was not inhibited in the same assay. A. Model for spindle bipolarity. Plus-end directed motors, such as Eg5 are thought to be involved in the separation of the centrosomes and the establishment of a symmetric spindle axis. B. Inhibition of the kinesin Eg5 results in monastrol spindles. Microtubules, green; chromosomes, blue. Eg5 is depicted as homotetramer (9). C. […] After imaging Eg5 driven microtubule gliding in the presence of monastrol (200 μM), the same assay chamber was depleted of compound and the microtubule gliding recorded (Washout). […] D. Chemical structures of monastrol and DHP2.
Mitotic kinesins have been implicated in anti-parallel overlap interactions (Walczak et al., Curr. Biol. 8:903, 1998). Inhibition of the tetrameric mitotic kinesin Eg5 with antibodies induced monoasters (Sawin et al., Nature 359:540, 1992; Blangy et al., Cell 83:125, 1995; Sharp et al., J. Cell Biol. 144:125, 1999). We therefore hypothesized that Eg5 might be a target of monastrol. Like other motile kinesins, Eg5 can drive in vitro microtubule gliding (Sawin et al., Nature 359:540, 1992; Kapoor et al., Proc. Natl. Acad. Sci. USA, 1999). We tested whether monastrol inhibits Eg5 motility in vitro. […] Microtubule attachment to the Eg5 coated coverslip was maintained in the presence of monastrol (FIG. 26C). […] To test whether inhibition of the Eg5 driven microtubule gliding is specific to monastrol, we tested the closely related compound DHP2 (FIG. 26D).

[1] = tested on: Golgi apparatus or lysosomes; experiment: distribution of lysosomes and Golgi apparatus; assay type: cell-based; conditions: concentrations that caused strong spindle defects; interphase cells
Text: We investigated the phenotype of mammalian cells (BS-C-I) treated with the compounds of group III. Live images were taken as described previously (Cramer et al., Curr. Op. Cell Biol. 6:82, 1994); for immunofluoresence, the cells were stained with a Golgi-specific antibody (anti-Golgi 58K protein antibodies [Sigma]) or with anti-α-tubulin antibodies (DM1 A [Sigma]); actin was visualized using TRIC-conjugated phalliodin (Sigma); lysosomes were stained with LysoTracker (Molecular Probes; Palmiter et al., EMBO J. 15:1784, 1996). Our examination of the distribution of microtubules, actin, and chromatin in fixed cells by fluorescence microscopy allowed us to divide the small molecules into three classes. Twenty-seven had no observable effect on the microtubule and actin cytoskeleton or on cheomosome distribution. Consistent with the data from the cytoblot assay we observed an increase in the number of normal appearing mitotic cells. These compounds may increase the mitotic index by perturbing the function of proteins that regulate progression through the cell cycle, e.g., anaphase regulators, rather than structural or mechanochemical components of the mitotic spindle. It is also possible that these compounds have a subtle effect on cytoskeletal dynamics or chromosome organization that may not be observable in fixed cells. […]

In the case of monastrol, the IC50 (recombinant Eg5) is reported as 14 µM, the IC50 (inhibitory concentration), Eg5 driven microtubule motility (recombinant Eg5) is reported as 14 µM and the “reversibility of inhibition (washout)” value (recombinant Eg5) is reported as “reversible in vitro and in vivo”. The “reversibility of inhibition (washout)” value (recombinant Eg5; listed as Monastrol) was “reversible in vitro” and the “localization and organization of Golgi apparatus or lysosomes” value [1] was “did not affect localization and organization of the Golgi apparatus or lysosomes in interphase cells”.
